Data on four compounds can be found in patent publication US10280134B1, “Potent cytotoxic agent against human hepatocellular carcinoma cell line based on 2-aryl hydrazonopropanal pharmacophore” (King Abdulaziz University, priority 2018, dated 2019).

Converted amounts (≈) assume the structure as drawn. Where two headings read alike, the source gives them in different places.

Data set [1] concerns BJ1 (Normal Skin Fibroblast). As to the kind of experiment: MTT cytotoxicity assay on normal human fibroblast cell line BJ1. It is filed as cell-based. The settings on record: for Remarks (% lethality at 100 ppm): BJ1 normal skin fibroblast, 48 hrs; for IC50 / IC90: Homo sapiens, Skin fibroblast, 48 h; for IC50: read-out: IC50: Lethal concentration of the sample which causes the death of 50% of cells in 48 hrs; for IC90: read-out: IC90: Lethal concentration of the sample which causes the death of 90% of cells in 48 hrs. The method, then: The activity of the test compounds on a non-cancerous, normal human fibroblast cell line, BJ1, was assessed by the mitochondrial dependent reduction of yellow MTT (3-(4,5-dimethylthiazol-2-yl)-2,5-diphenyl tetrazolium bromide) to purple formazan; Mosmann T. Rapid colorimetric assays for cellular growth and survival: Application to proliferation and cytotoxicity assays. J Immunol Methods.
All procedures were done in a sterile area using a Laminar flow cabinet biosafety class II level (Baker, SG4031NT, Sanford, Me., USA).
(§1) Cells were batch cultured for 10 days, then seeded at concentration of 10×10^3 cells/well in fresh complete growth medium in 96-well microtiter plastic plates at 37° C. for 24 h under 5% CO2 using a water jacketed Carbon dioxide incubator (Sheldon, TC2323, Cornelius, Oreg., USA). […] To stop the reaction and dissolving the formed crystals, 200 μL of 10% Sodium dodecyl sulphate (SDS) in deionized water was added to each well and incubated overnight at 37° C.
(§2) A statistical significance was tested between samples and negative control (cells with vehicle) using independent t-test by SPSS 11 program. DMSO is the vehicle used for dissolution of plant extracts and its final concentration on the cells was less than 0.2%. The percentage of change in viability was calculated according to the formula: ((Reading of extract/Reading of negative control)−1)×100.
Data Analysis of Cytotoxic Activity Test. Sample Testing Against the Normal Human Epithelial Cell Line: BJ1 (Normal Skin Fibroblast).

Data set [2] relates to hepatocellular carcinoma cell line HEPG2. As to the kind of experiment: MTT cytotoxicity assay on human hepatocellular carcinoma cell line HePG2. Conditions: for Remarks (% lethality at 100 ppm): HEPG2, at 100 ppm; for IC50 / IC90: Homo sapiens; for IC90: read-out: IC90: Lethal concentration of the sample which causes the death of 90% of cells in 48 hrs. It is filed as cell-based. The method, then: Cell viability was assessed by the mitochondrial dependent reduction of yellow MTT (3-(4,5-dimethylthiazol-2-yl)-2,5-diphenyl tetrazolium bromide) to purple formazan; Mossman, et al., id.
All procedures were done in a sterile area using a Laminar flow cabinet biosafety class II level (Baker, SG403INT, Sanford, Me., USA).
as §1, §2
Samples Tested Against the Human Tumor Cell Line(s): HePG 2 a Human Hepatocellular Carcinoma Cell Line.

Where [3] appears, read: HEPG2, MTT, 48 hrs, 100 to 0.78 μg/ml, read-out: IC50: Lethal concentration of the sample which causes the death of 50% of cells in 48 hrs.
Where [4] appears, read: HEPG2, MTT, 48 hrs, 100 to 0.78 μg/ml.

For the compound `COC(=O)c1ccccc1N/N=C(\C=O)C(=O)c1ccccc1` [Compound 1], the “Remarks (% lethality at 100 ppm)” value in data set [1] was determined as 41.5% at 100 ppm; in data set [2] (48 hrs), 95.3% at 100 ppm. Moreover, the “safety on normal human cell line (in words)” value in data set [1] (normal human epithelial cell line (BJ1)) is “substantially safe”. Also, in data set [2] (setting [3]), the IC50 was found to be 45.5 µg/mL. Moreover, the IC90 in data set [2] (setting [4]) turned out to be 77.3 µg/mL (≈ 249 µM).
Regarding `COC(=O)c1ccccc1N/N=C(\C=O)C(=O)c1cccs1` [Compound 3], the results for the “Remarks (% lethality at 100 ppm)” value in data set [1] and in data set [2] (48 hrs) were 80% at 100 ppm and 100% at 100 ppm, respectively. For the same compound, the values for the IC50 in data set [1] and in data set [2] (setting [3]) were 61 µg/mL (≈ 193 µM) and 14.7 µg/mL, respectively. The IC90 was determined as 105 µg/mL (≈ 332 µM) in data set [1] and 26 µg/mL (≈ 82.2 µM) in data set [2] (setting [4]).
Take `COc1cccc2c1C(=O)c1c(O)c3c(c(O)c1C2=O)C[C@@](O)(C(=O)CO)C[C@@H]3O[C@H]1C[C@H](N)[C@H](O)[C@H](C)O1` [Doxorubicin, doxorubicin, reference compound]: the IC50 in data set [2] (HEPG2, positive control, Table 3, Mw = 579.99, read-out: IC50 (positive control)) came out at 37.8 µM.
Take `COC(=O)c1ccccc1N/N=C(\C=O)C(C)=O` [Compound 2]: the “Remarks (% lethality at 100 ppm)” value in data set [1] and in data set [2] (48 hrs) was 100% at 100 ppm each time. Further, the IC50 in data set [1] came to 16.9 µg/mL (≈ 68.1 µM); in data set [2] (setting [3]), 15.7 µg/mL. In addition, the IC90 in data set [1] is 29.1 µg/mL (≈ 117 µM); in data set [2] (setting [4]), 28.3 µg/mL (≈ 114 µM).
